Measured values: patent publication US20070036793A1, “Methods for use of an lkb1/strad7mo25 complex” (priority 2003, published 2007)

Tests used:
[1] = target: T1, LKB1 (Mus musculus, UniProt Q9WTK7); experiment: Activity of endogenous LKB1 immunoprecipitated from LKB1+/+ MEFs, LKBtide substrate; type: cell-based; conditions: 1 h
T1 construct: AMPKα1/a2 and LKB1 were immunoprecipitated from the cell lysates; endogenous in cells; host or cells: LKB1+/+ MEFs
Experimental: FIG. 28. […] (A) LKB1^+/+ MEFs were either left untreated or stimulated with the indicated concentrations of phenformin (Phen) for 1 h. AMPKα1/a2 and LKB1 were immunoprecipitated from the cell lysates, and in vitro kinase activity towards the AMARA and LKBtide peptides respectively, were measured as described in Materials and Methods (Example 4). (B) To confirm equal expression of the kinases in each sample, cell lysates were subjected to SDS-PAGE and western blot analysis with the indicated antibodies. The phospho pT172 antibody (P-AMPK) recognises the phosphorylated T-loop of AMPKα1. […] AMPKα1 and the indicated AMPK-related kinases were immunoprecipitated from the cell lysates, and in vitro kinase activity towards the AMARA peptide measured as described in Materials and Methods. […]
Cell culture, stimulation and cell lysis. […] Protein concentrations were determined by the Bradford method with bovine serum albumin as the standard (Bradford, 1976).
0.1-1 mg Hela or MEF cell lysate protein was incubated at 4° C. for 1 h on a shaking platform with 5 μl of protein G-Sepharose conjugated to 5 μg of human LKB1 antibody. […] The p81 membranes were washed in phosphoric acid, and the incorporated radioactivity was measured by scintillation counting as described previously for MAP kinase (Alessi et al., 1995).

[2] = system: AMPK-related kinases (NUAK2, QIK, QSK, SIK, MARK1, MARK2/3, MARK4); experiment: Activity of endogenous AMPK-related kinases immunoprecipitated from MEFs after drug stimulation; type: cell-based, mouse; conditions: 1 h
Experimental: FIG. 27 Activity of AMPK-related kinases in LKB1+/+ and LKB1^−/− MEFs. LKB1^+/+ or LKB1^−/− MEFs were either left untreated (black bars) or stimulated with 10 mM phenformin (Phen, white bars) for 1 h. AMPKα1 and AMPK-related kinases were immunoprecipitated from the cell lysates, and in vitro kinase activity towards the AMARA peptide was measured as described in Materials and Methods (Example 4). To confirm equal expression of the kinases in each sample, cell lysates (AMPKα1, NUAK2, MARK2/3 and MARK4) or immunoprecipitated proteins (QIK, QSK, SIK and MARK1) were subjected to SDS-PAGE and western blot analysis. All AMPK-related kinases migrated with the expected molecular mass. In the case of AMPKα1, cell lysates were immunoblotted with a phospho Thr172 antibody (P-AMPK), that recognises the phosphorylated T-loop. […]
FIG. 28. […] AMPKα1/a2 and LKB1 were immunoprecipitated from the cell lysates, and in vitro kinase activity towards the AMARA and LKBtide peptides respectively, were measured as described in Materials and Methods (Example 4). […] AMPKα1 and the indicated AMPK-related kinases were immunoprecipitated from the cell lysates, and in vitro kinase activity towards the AMARA peptide measured as described in Materials and Methods. […]
Cell culture, stimulation and cell lysis. […] Protein concentrations were determined by the Bradford method with bovine serum albumin as the standard (Bradford, 1976). […]

T1 sequence (Q9WTK7 1-433 limits assumed): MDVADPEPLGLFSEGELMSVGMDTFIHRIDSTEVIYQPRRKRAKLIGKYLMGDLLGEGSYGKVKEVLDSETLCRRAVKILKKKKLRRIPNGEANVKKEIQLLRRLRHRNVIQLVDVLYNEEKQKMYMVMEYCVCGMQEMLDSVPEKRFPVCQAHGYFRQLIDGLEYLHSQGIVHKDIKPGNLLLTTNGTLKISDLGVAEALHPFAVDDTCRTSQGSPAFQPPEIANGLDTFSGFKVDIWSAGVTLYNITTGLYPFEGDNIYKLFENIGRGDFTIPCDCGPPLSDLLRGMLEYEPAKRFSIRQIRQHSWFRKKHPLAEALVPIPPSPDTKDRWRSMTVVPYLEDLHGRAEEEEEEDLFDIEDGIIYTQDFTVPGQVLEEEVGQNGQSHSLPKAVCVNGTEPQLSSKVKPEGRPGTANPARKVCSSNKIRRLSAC
T1 sequence (Q3UUJ4 whole entry partner): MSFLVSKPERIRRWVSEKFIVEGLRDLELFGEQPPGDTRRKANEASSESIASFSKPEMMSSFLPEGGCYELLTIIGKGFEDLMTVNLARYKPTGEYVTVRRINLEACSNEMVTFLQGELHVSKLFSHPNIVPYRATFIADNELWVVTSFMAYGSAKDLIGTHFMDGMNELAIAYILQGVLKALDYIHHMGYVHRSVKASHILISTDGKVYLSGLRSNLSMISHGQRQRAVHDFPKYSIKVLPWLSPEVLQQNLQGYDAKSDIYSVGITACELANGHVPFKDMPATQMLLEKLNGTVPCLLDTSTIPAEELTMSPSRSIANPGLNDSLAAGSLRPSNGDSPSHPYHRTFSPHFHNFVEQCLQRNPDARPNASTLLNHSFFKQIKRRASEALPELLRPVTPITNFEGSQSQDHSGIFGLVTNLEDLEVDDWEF
T1 sequence (Q06138 whole entry partner): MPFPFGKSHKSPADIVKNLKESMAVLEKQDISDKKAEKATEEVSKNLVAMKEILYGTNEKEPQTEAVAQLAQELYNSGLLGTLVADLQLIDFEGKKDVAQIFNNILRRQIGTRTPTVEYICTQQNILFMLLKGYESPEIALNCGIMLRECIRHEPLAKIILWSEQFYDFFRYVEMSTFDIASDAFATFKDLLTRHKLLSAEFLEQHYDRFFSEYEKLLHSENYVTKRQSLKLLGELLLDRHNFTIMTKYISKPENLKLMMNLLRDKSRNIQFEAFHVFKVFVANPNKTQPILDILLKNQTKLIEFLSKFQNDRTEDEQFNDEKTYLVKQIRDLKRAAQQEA

NC(=O)c1ncn([C@@H]2O[C@H](CO)[C@@H](O)[C@H]2O)c1N [AICA riboside, 5-aminoimidazole-4-carboxamide (AICA) riboside]
LKB1 activity [1]: do not activate LKB1 directly
activity of AMPK-related kinases ([2]; LKB1+/+ MEFs, 2 mM AICA riboside): failed to markedly activate

[H]/N=C(/N)N/C(=N/[H])NCCc1ccccc1 [phenformin]
LKB1 activity [1]: did not stimulate LKB1 activity
activity of AMPK-related kinases ([2]; MEFs, 10 mM phenformin): not significantly stimulated
